Read-outs that look alike come from different tables or passages of the source.
How the values were obtained:
Assay type in all cases: biochemical
Pim3 kinase = Pim3 kinase (Homo sapiens, UniProt Q86V86); assay: Pim3 ATP depletion assay
Pim1 kinase = Pim1 kinase (Homo sapiens, UniProt P11309); assay: Pim1 ATP depletion assay; conditions: Pim1 ATP depletion assay;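 note: Luciferase-luciferin luminescence readout of residual ATP after PIM1 transfers phosphate to a peptide substrate, 40 µM ATP added, reaction run to roughly half ATP consumption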
Chain of Pim1 kinase (P11309 whole entry): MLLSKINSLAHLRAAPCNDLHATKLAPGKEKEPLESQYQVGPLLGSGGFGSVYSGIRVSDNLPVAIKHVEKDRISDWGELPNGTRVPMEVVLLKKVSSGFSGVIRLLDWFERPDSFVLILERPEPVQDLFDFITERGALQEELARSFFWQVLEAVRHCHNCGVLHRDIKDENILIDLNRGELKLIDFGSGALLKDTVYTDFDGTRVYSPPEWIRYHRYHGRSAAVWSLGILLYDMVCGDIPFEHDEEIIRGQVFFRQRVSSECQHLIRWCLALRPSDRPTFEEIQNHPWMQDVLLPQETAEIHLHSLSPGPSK

Pim2 kinase = Pim2 kinase (Homo sapiens, UniProt Q9P1W9); assay: Pim2 ATP depletion assay;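 note: Luciferase-based luminescent readout of ATP remaining after PIM2 phosphorylates a BAD peptide, final 5 nM enzyme, 4 µM ATP, 10 µM peptide, 2.5% DMSO, run to roughly half ATP consumption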
Chain of Pim2 kinase (Q9P1W9 whole entry): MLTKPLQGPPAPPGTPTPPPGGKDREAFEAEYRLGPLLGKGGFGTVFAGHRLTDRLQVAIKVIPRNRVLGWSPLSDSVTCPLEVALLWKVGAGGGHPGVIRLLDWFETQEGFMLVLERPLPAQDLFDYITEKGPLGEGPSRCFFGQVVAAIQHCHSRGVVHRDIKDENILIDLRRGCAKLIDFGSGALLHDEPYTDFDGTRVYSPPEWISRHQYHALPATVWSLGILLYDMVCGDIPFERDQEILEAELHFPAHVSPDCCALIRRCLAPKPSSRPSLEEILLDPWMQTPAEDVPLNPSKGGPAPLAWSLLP

Measured: IC50

Cc1cccc(C)c1-c1nc(C(=O)Nc2cnccc2N2CCC[C@H](N)C2)c(N)cc1F [Example 509, 3-Amino-6-(2,6-dimethyl-phenyl)-5-fluoro-pyridine-2-carboxylic acid (3-amino-3,4,5,6-tetrahydro-2H-[1,4′]bipyridinyl-3′-yl)-amide]
< 1 µM: Pim3 kinase; read-out: IC50 (μM) PIM3 | Pim1 kinase; read-out: IC50 (μM) PIM1 | Pim2 kinase; read-out: IC50 (μM) PIM2

COc1ccc(F)c(-c2nc(C(=O)Nc3cnccc3N3CCC[C@H](N)C3)c(N)cc2F)c1F [Example 510, 3-Amino-6-(2,6-difluoro-3-methoxy-phenyl)-5-fluoro-pyridine-2-carboxylic acid (3-amino-3,4,5,6-tetrahydro-2H-[1,4′]bipyridinyl-3′-yl)-amide]
< 1 µM: Pim3 kinase; read-out: IC50 (μM) PIM3 | Pim1 kinase; read-out: IC50 (μM) PIM1 | Pim2 kinase; read-out: IC50 (μM) PIM2

COc1ncccc1-c1nc(C(=O)Nc2cnccc2N2CCC[C@H](N)C2)c(N)cc1F [Example 511, 5-Amino-3-fluoro-2′-methoxy-[2,3′]bipyridinyl-6-carboxylic acid (3-amino-3,4,5,6-tetrahydro-2H-[1,4′]bipyridinyl-3′-yl)-amide]
< 1 µM: Pim3 kinase; read-out: IC50 (μM) PIM3 | Pim1 kinase; read-out: IC50 (μM) PIM1 | Pim2 kinase; read-out: IC50 (μM) PIM2

COc1cccc(-c2nc(C(=O)Nc3cnccc3N3CCC[C@H](N)C3)c(N)cc2F)n1 [Example 512, 5-Amino-3-fluoro-6′-methoxy-[2,2′]bipyridinyl-6-carboxylic acid (3-amino-3,4,5,6-tetrahydro-2H-[1,4′]bipyridinyl-3′-yl)-amide]
< 1 µM: Pim3 kinase; read-out: IC50 (μM) PIM3 | Pim1 kinase; read-out: IC50 (μM) PIM1 | Pim2 kinase; read-out: IC50 (μM) PIM2

Nc1cc(F)c(-c2ccncc2)nc1C(=O)Nc1cnccc1N1CCC[C@H](N)C1 [Example 513, 5-Amino-3-fluoro-[2,4′]bi-pyridinyl-6-carboxylic acid (3-amino-3,4,5,6-tetrahydro-2H-[1,4′]bipyridinyl-3′-yl)-amide]
< 1 µM: Pim3 kinase; read-out: IC50 (μM) PIM3 | Pim1 kinase; read-out: IC50 (μM) PIM1 | Pim2 kinase; read-out: IC50 (μM) PIM2

Nc1ccc(-c2nc(C(=O)Nc3cnccc3N3CCC[C@H](N)C3)c(N)cc2F)cn1 [Example 514, 5,6′-Diamino-3-fluoro-[2,3′]bi-pyridinyl-6-carboxylic acid (3-amino-3,4,5,6-tetrahydro-2H-[1,4′]bipyridinyl-3′-yl)-amide]
< 1 µM: Pim3 kinase; read-out: IC50 (μM) PIM3 | Pim1 kinase; read-out: IC50 (μM) PIM1 | Pim2 kinase; read-out: IC50 (μM) PIM2

CN(C)C(=O)c1ccc(F)c(-c2nc(C(=O)Nc3cnccc3N3CCC[C@H](N)C3)c(N)cc2F)c1 [Example 515, 3-Amino-6-(5-dimethylcarbamoyl-2-fluoro-phenyl)-5-fluoro-pyridine-2-carboxylic acid (3-amino-3,4,5,6-tetrahydro-2H-[1,4′]bipyridinyl-3′-yl)-amide]
< 1 µM: Pim3 kinase; read-out: IC50 (μM) PIM3 | Pim1 kinase; read-out: IC50 (μM) PIM1 | Pim2 kinase; read-out: IC50 (μM) PIM2

Nc1cc(-c2ccncc2NC(=O)c2cccc(-c3ccc(N4CCNCC4)cc3)n2)nc(C(F)(F)F)n1 [Example 525, 6-(4-Piperazin-1-yl-phenyl)-pyridine-2-carboxylic acid [4-(6-amino-2-trifluoromethyl-pyrimidin-4-yl)-pyridin-3-yl]-amide]
< 1 µM: Pim3 kinase; read-out: IC50 (μM) PIM3 | Pim1 kinase; read-out: IC50 (μM) PIM1 | Pim2 kinase; read-out: IC50 (μM) PIM2

Nc1cc(-c2ccncc2NC(=O)c2nc(C3=CCNCC3)ccc2N)nc(C(F)(F)F)n1 [Example 526, 5-Amino-1′,2′,3′,6′-tetrahydro-[2,4′]bipyridinyl-6-carboxylic acid [4-(6-amino-2-trifluoromethyl-pyrimidin-4-yl)-byridin-3-yl]-amide]
< 1 µM: Pim3 kinase; read-out: IC50 (μM) PIM3 | Pim1 kinase; read-out: IC50 (μM) PIM1 | Pim2 kinase; read-out: IC50 (μM) PIM2

Nc1cc(-c2ccncc2NC(=O)c2cccc(-c3ccc(F)cc3F)n2)nc(C(F)(F)F)n1 [Example 527, 6-(2,4-Difluoro-phenyl)-pyridine-2-carboxylic acid [4-(6-amino-2-trifluoromethyl-pyrimidin-4-yl)-pyridin-3-yl]-amide]
< 1 µM: Pim3 kinase; read-out: IC50 (μM) PIM3 | Pim1 kinase; read-out: IC50 (μM) PIM1 | Pim2 kinase; read-out: IC50 (μM) PIM2

Nc1cc(-c2ccncc2NC(=O)c2cccc(-c3c(F)cccc3F)n2)nc(C(F)(F)F)n1 [Example 528, 6-(2,6-Difluoro-phenyl)-pyridine-2-carboxylic acid [4-(6-amino-2-trifluoromethyl-pyrimidin-4-yl)-pyridin-3-yl]-amide]
< 1 µM: Pim3 kinase; read-out: IC50 (μM) PIM3 | Pim1 kinase; read-out: IC50 (μM) PIM1 | Pim2 kinase; read-out: IC50 (μM) PIM2

Nc1cc(-c2ccncc2NC(=O)c2cccc(-c3ccccc3F)n2)nc(C(F)(F)F)n1 [Example 529, 6-(2-Fluoro-phenyl)-pyridine-2-carboxylic acid [4-(6-amino-2-trifluoromethyl-pyrimidin-4-yl)-pyridin-3-yl]-amide]
< 1 µM: Pim3 kinase; read-out: IC50 (μM) PIM3 | Pim1 kinase; read-out: IC50 (μM) PIM1 | Pim2 kinase; read-out: IC50 (μM) PIM2

Nc1cc(-c2ccncc2NC(=O)c2cccc(-c3ccccc3)n2)nc(C(F)(F)F)n1 [Example 530, 6-Phenyl-pyridine-2-carboxylic acid [4-(6-amino-2-trifluoromethyl-pyrimidin-4-yl)-pyridin-3-yl]-amide]
< 1 µM: Pim3 kinase; read-out: IC50 (μM) PIM3 | Pim1 kinase; read-out: IC50 (μM) PIM1 | Pim2 kinase; read-out: IC50 (μM) PIM2

Nc1cc(-c2ccncc2NC(=O)c2nc(-c3ccccc3)ccc2N)nc(C(F)(F)F)n1 [Example 531, 3-Amino-6-phenyl-pyridine-2-carboxylic acid [4-(6-amino-2-trifluoromethyl-pyrimidin-4-yl)-pyridin-3-yl]-amide]
< 1 µM: Pim3 kinase; read-out: IC50 (μM) PIM3 | Pim1 kinase; read-out: IC50 (μM) PIM1 | Pim2 kinase; read-out: IC50 (μM) PIM2

CCCOc1ccc(F)c(-c2ccc(N)c(C(=O)Nc3cnccc3-c3cc(N)nc(SC)n3)n2)c1F [Example 532, 3-Amino-6-(2,6-difluoro-3-propoxy-phenyl)-pyridine-2-carboxylic acid [4-(6-amino-2-methylsulfanyl-pyrimidin-4-yl)-pyridin-3-yl]-amide]
< 1 µM: Pim3 kinase; read-out: IC50 (μM) PIM3 | Pim1 kinase; read-out: IC50 (μM) PIM1 | Pim2 kinase; read-out: IC50 (μM) PIM2

CCCOc1ccc(F)c(-c2ccc(N)c(C(=O)Nc3cnccc3-c3cc(N)nc(C)n3)n2)c1F [Example 533, 3-Amino-6-(2,6-difluoro-3-propoxy-phenyl)-pyridine-2-carboxylic acid [4-(6-amino-2-methyl-pyrimidin-4-yl)-pyridin-3-yl]-amide]
< 1 µM: Pim3 kinase; read-out: IC50 (μM) PIM3 | Pim1 kinase; read-out: IC50 (μM) PIM1 | Pim2 kinase; read-out: IC50 (μM) PIM2

CSc1nc(N)cc(-c2ccncc2NC(=O)c2nc(-c3c(F)ccc(OC(C)C)c3F)ccc2N)n1 [Example 536, 3-Amino-6-(2,6-difluoro-3-isopropoxy-phenyl)-pyridine-2-carboxylic acid [4-(6-amino-2-methylsulfanyl-pyrimidin-4-yl)-pyridin-3-yl]-amide]
< 1 µM: Pim3 kinase; read-out: PIM3 IC50 | Pim1 kinase; read-out: PIM1 IC50 | Pim2 kinase; read-out: PIM2 IC50

Cc1nc(N)cc(-c2ccncc2NC(=O)c2nc(-c3c(F)ccc(OC(C)C)c3F)ccc2N)n1 [Example 537, 3-Amino-6-(2,6-difluoro-3-isopropoxy-phenyl)-pyridine-2-carboxylic acid [4-(6-amino-2-methyl-pyrimidin-4-yl)-pyridin-3-yl]-amide]
< 1 µM: Pim3 kinase; read-out: PIM3 IC50 | Pim1 kinase; read-out: PIM1 IC50 | Pim2 kinase; read-out: PIM2 IC50

Cc1cc(-c2ccncc2NC(=O)c2nc(-c3cc(C(=O)NC(C)C)ccc3F)ccc2N)cc(N)n1 [Example 539, 3-Amino-6-(2-fluoro-5-isopropylcarbamoyl-phenyl)-pyridine-2-carboxylic acid (2′-amino-6′-methyl-[4,4′]bi-pyridinyl-3-yl)-amide]
< 1 µM: Pim3 kinase; read-out: PIM3 IC50 | Pim1 kinase; read-out: PIM1 IC50 | Pim2 kinase; read-out: PIM2 IC50

CCNC(=O)c1ccc(F)c(-c2ncc(N)c(C(=O)Nc3cnccc3N3CCC[C@H](N)C3)n2)c1 [Example 540, 5-Amino-2-(5-ethylcarbamoyl-2-fluoro-phenyl)-pyrimidine-4-carboxylic acid (3-amino-3,4,5,6-tetrahydro-2H-[1,4′]bipyridinyl-3′-yl)-amide]
< 1 µM: Pim3 kinase; read-out: PIM3 IC50 | Pim1 kinase; read-out: PIM1 IC50 | Pim2 kinase; read-out: PIM2 IC50

CC(C)Oc1ccc(F)c(-c2ncc(N)c(C(=O)Nc3cnccc3N3CCC[C@H](N)C3)n2)c1 [Example 541, 5-Amino-2-(2-fluoro-5-isopropoxy-phenyl)-pyrimidine-4-carboxylic acid (3-amino-3,4,5,6-tetrahydro-2H-[1,4′]bi-pyridinyl-3′-yl)-amide]
< 1 µM: Pim3 kinase; read-out: PIM3 IC50 | Pim1 kinase; read-out: PIM1 IC50 | Pim2 kinase; read-out: PIM2 IC50

Nc1cnc(-c2cccc(F)c2F)nc1C(=O)Nc1cnccc1N1CCC[C@H](N)C1 [Example 546, 5-Amino-2-(2,3-difluoro-phenyl)-pyrimidine-4-carboxylic acid (3-amino-3,4,5,6-tetrahydro-2H-[1,4′]bipyridinyl-3′-yl)-amide]
< 1 µM: Pim3 kinase; read-out: PIM3 IC50 | Pim1 kinase; read-out: PIM1 IC50 | Pim2 kinase; read-out: PIM2 IC50

CCOc1ccc(F)c(-c2ncc(N)c(C(=O)Nc3cnccc3N3CCC[C@H](N)C3)n2)c1 [Example 548, 5-Amino-2-(5-ethoxy-2-fluoro-phenyl)-pyrimidine-4-carboxylic acid (3-amino-3,4,5,6-tetrahydro-2H-[1,4′]bipyridinyl-3′-yl)-amide]
< 1 µM: Pim3 kinase; read-out: PIM3 IC50 | Pim1 kinase; read-out: PIM1 IC50 | Pim2 kinase; read-out: PIM2 IC50

COc1ccccc1-c1ncc(N)c(C(=O)Nc2cnccc2N2CCC[C@H](N)C2)n1 [Example 551, 5-Amino-2-(2-methoxy-phenyl)-pyrimidine-4-carboxylic acid (3-amino-3,4,5,6-tetrahydro-2H-[1,4′]bipyridinyl-3′-yl)-amide]
< 1 µM: Pim3 kinase; read-out: PIM3 IC50 | Pim1 kinase; read-out: PIM1 IC50 | Pim2 kinase; read-out: PIM2 IC50

Source: patent US20140249135A1, “PIM KINASE INHIBITORS AND METHODS OF THEIR USE” (NOVARTIS AG, priority 2007, published 2014)
